Source: US20250003008A1, “METHODS FOR TREATMENT OF CANCER” (The Johns Hopkins University, priority 2021, published 2025)
Read-outs that look alike come from different tables or passages of the source.

Legend:
[1] = Protocol: PrE0505, a phase 2 single arm multicenter study, enrolled human patients with previously untreated unresectable MPM (NCT02899195, FIG. 1). […] Patients with stable or responding tumors after concurrent therapy, continued on maintenance durvalumab for a maximum duration of one year from the first study treatment. A protocol-defined safety review was performed after enrollment of the first 6 and 15 patients. Pre-specified dose-limiting toxicities during the safety run-in period included any immune-mediated adverse event of ≥grade 4 or any non-resolving immune-mediated adverse event of ≥grade 3 during the first two cycles of therapy.
Imaging was performed every 6 weeks during the concurrent phase of treatment and every 9 weeks during maintenance durvalumab. Best objective response was evaluated by RECIST Version 1.1 criteria modified for mesothelioma. Toxicity was determined using the CTCAE Version 4.03 criteria.
Secondary objectives included safety and tolerability of durvalumab and durvalumab in combination with chemotherapy in subjects with malignant pleural mesothelioma, percentage of patients progression-free at 24 weeks from the time of registration (response coded based on modified RECIST 1.1 criteria for mesothelioma), progression-free survival-measured from the time of study registration until radiologic progression, clinical progression or death, best objective response rate with evaluation continued up to 1 year (response coded based on modified RECIST Version 1.1 criteria for mesothelioma). Exploratory objectives included assessment of tumor baseline PD-L1 expression, the genomic and neoantigen landscape of tumors, dynamics of circulating cell free tumor DNA and other blood-based biomarkers.

[2] = tested on: malignant pleural mesothelioma; details: historical control, phase 3 study; cited from earlier work
[3] = of the patients who received that agent within the regimen

Nc1nc2[nH]cc(CCc3ccc(C(=O)N[C@@H](CCC(=O)O)C(=O)O)cc3)c2c(=O)[nH]1 [pemetrexed]
patients who received a dose reduction due to toxicity ([1]; human, in vivo): 2%

N.N.O=C([O-])C1(C(=O)[O-])CCC1.[Pt+2] [carboplatin]
patients who received a dose reduction due to toxicity [1, 3]: 12%

N.N.[Cl][Pt][Cl] [cisplatin]
survival [2]: 9.3 months

durvalumab
patients who received a dose reduction due to toxicity [1, 3]: no patients
